{
  "source": "ChEMBL document CHEMBL5050855",
  "about": "“Mettl16 inhibitors and uses thereof” (2021)",
  "key": {"HEL": {"test_system": "HEL", "test": "Antiproliferative activity against human HEL cells after 72 hrs by MTT assay", "assay_type": "functional, cell-based"}, "Kasumi 1 [1]": {"test_system": "Kasumi 1", "test": "Antiproliferative activity against human Kasumi 1 cells after 72 hrs by MTT assay", "assay_type": "functional, cell-based", "conditions": "Kasumi 1, 72 h"}, "[2]": {"test": "Antiproliferative activity against human MA9.3ITD cells after 72 hrs by MTT assay", "assay_type": "functional, cell-based"}, "U-937 [3]": {"test_system": "U-937", "test": "Antiproliferative activity against human U-937 cells after 72 hrs by MTT assay", "assay_type": "functional, cell-based", "conditions": "U-937, 72 h"}, "[4]": {"test": "Antiproliferative activity against human MA9.3RAS cells after 72 hrs by MTT assay", "assay_type": "functional, cell-based"}, "HL-60": {"test_system": "HL-60", "test": "Antiproliferative activity against human HL-60 cells after 72 hrs by MTT assay", "assay_type": "functional, cell-based", "conditions": "HL-60, 72 h"}, "MONO-MAC-6": {"test_system": "MONO-MAC-6", "test": "Antiproliferative activity against human MONO-MAC-6 cells after 72 hrs by MTT assay", "assay_type": "functional, cell-based", "conditions": "MONO-MAC-6, 72 h"}, "RS4-11": {"test_system": "RS4-11", "test": "Antiproliferative activity against human RS4-11 cells after 72 hrs by MTT assay", "assay_type": "functional, cell-based", "conditions": "RS4-11, 72 h"}, "SUP-B15": {"test_system": "SUP-B15", "test": "Antiproliferative activity against human SUP-B15 cells after 72 hrs by MTT assay", "assay_type": "functional, cell-based", "conditions": "SUP-B15, 72 h"}, "DG-75": {"test_system": "DG-75", "test": "Antiproliferative activity against human DG-75 cells after 72 hrs by MTT assay", "assay_type": "functional, cell-based", "conditions": "DG-75, 72 h"}, "CA46": {"test_system": "CA46", "test": "Antiproliferative activity against human CA46 cells after 72 hrs by MTT assay", "assay_type": "functional, cell-based", "conditions": "CA46, 72 h"}, "HeLa": {"test_system": "HeLa", "test": "Antiproliferative activity against human HeLa cells after 72 hrs by MTT assay", "assay_type": "functional, cell-based"}, "COLO357": {"test_system": "COLO357", "test": "Antiproliferative activity against human COLO357 cells after 72 hrs by MTT assay", "assay_type": "functional, cell-based", "conditions": "COLO357, 72 h"}, "U-87 MG": {"test_system": "U-87 MG", "test": "Antiproliferative activity against human U-87 MG cells after 72 hrs by MTT assay", "assay_type": "functional, cell-based, U-87MG ATCC"}, "LN-229": {"test_system": "LN-229", "test": "Antiproliferative activity against human LN-229 cells after 72 hrs by MTT assay", "assay_type": "functional, cell-based", "conditions": "LN-229, 72 h"}, "A 172": {"test_system": "A 172", "test": "Antiproliferative activity against human A-172 cells after 72 hrs by MTT assay", "assay_type": "functional, cell-based", "conditions": "A 172, 72 h"}, "T98G": {"test_system": "T98G", "test": "Antiproliferative activity against human T98G cells after 72 hrs by MTT assay", "assay_type": "functional, cell-based"}, "U-937 [5]": {"test_system": "U-937", "test": "Binding affinity towards METTL16 in human U-937 cells at 0.1 to 500 uM and measured by drug affinity responsive target stability (DARTS) assay", "assay_type": "cell-based", "conditions": "dose 0.1-500 µM"}, "U-937 [6]": {"test_system": "U-937", "test": "Binding affinity towards METTL16 in human U-937 cells at 0.1 to 500 uM and measured by cellular thermal shift assay (CETSA)", "assay_type": "cell-based", "conditions": "dose 0.1-500 µM"}, "U-937 [7]": {"test_system": "U-937", "test": "Inhibition of METTL16 in human U-937 cells at 10 to 20 nM assessed as increase in global m6A levels measured after 48 hrs", "assay_type": "cell-based", "conditions": "dose 10-20 nM"}, "Kasumi 1 [8]": {"test_system": "Kasumi 1", "test": "Inhibition of METTL16 in human Kasumi 1 cells at 10 to 20 nM assessed as increase in global m6A levels measured after 48 hrs", "assay_type": "cell-based", "conditions": "dose 10-20 nM"}, "MA9.3RAS": {"test_system": "MA9.3RAS", "test": "Inhibition of METTL16 in human MA9.3RAS cells at 10 to 20 nM assessed as increase in global m6A levels measured after 48 hrs", "assay_type": "cell-based", "conditions": "dose 10-20 nM"}, "NOMO-1": {"test_system": "NOMO-1", "test": "Antiproliferative activity against human NOMO-1 cells after 72 hrs by MTT assay", "assay_type": "functional, cell-based", "conditions": "NOMO-1, 72 h"}},
  "note": "The source made the active and inactive calls. The calls are words filed in the database; no cut-off is given here.",
  "data": [
    {"smiles": "Nc1ccc(Cn2ccc3c4c(N)nc(N)nc4ccc32)cc1", "values": [
      {"measurement": "IC50", "setting": "HEL", "value": 15.4, "unit": "nM"},
      {"measurement": "IC50", "setting": "Kasumi 1 [1]", "value": 13, "unit": "nM"},
      {"measurement": "IC50", "setting": "[2]", "value": 15.7, "unit": "nM"},
      {"measurement": "IC50", "setting": "U-937 [3]", "value": 9.63, "unit": "nM"},
      {"measurement": "IC50", "setting": "[4]", "value": 16.1, "unit": "nM"},
      {"measurement": "IC50", "setting": "HL-60", "value": 32.6, "unit": "nM"},
      {"measurement": "IC50", "setting": "MONO-MAC-6", "value": 28, "unit": "nM"},
      {"measurement": "IC50", "setting": "RS4-11", "value": 37, "unit": "nM"},
      {"measurement": "IC50", "setting": "SUP-B15", "value": 13, "unit": "nM"},
      {"measurement": "IC50", "setting": "DG-75", "value": 44, "unit": "nM"},
      {"measurement": "IC50", "setting": "CA46", "value": 109, "unit": "nM"},
      {"measurement": "IC50", "setting": "HeLa", "value": 64, "unit": "nM"},
      {"measurement": "IC50", "setting": "COLO357", "value": 1030, "unit": "nM"},
      {"measurement": "IC50", "setting": "U-87 MG", "value": 20.9, "unit": "µM"},
      {"measurement": "IC50", "setting": "LN-229", "value": 558, "unit": "nM"},
      {"measurement": "IC50", "setting": "A 172", "value": 682, "unit": "nM"},
      {"measurement": "IC50", "setting": "T98G", "value": 10.8, "unit": "µM"},
      {"measurement": "Activity", "setting": "U-937 [5]", "value": "Active"},
      {"measurement": "Activity", "setting": "U-937 [6]", "value": "Active"},
      {"measurement": "inhibition", "setting": "U-937 [7]", "value": "Active"},
      {"measurement": "inhibition", "setting": "Kasumi 1 [8]", "value": "Active"},
      {"measurement": "inhibition", "setting": "MA9.3RAS", "value": "Active"}
    ]},
    {"smiles": "Nc1ccc(Cn2ccc3c4c(N)nc(N)nc4ccc32)c(CO)c1", "values": [
      {"measurement": "IC50", "setting": "[2]", "value": 47, "unit": "nM"},
      {"measurement": "IC50", "setting": "U-937 [3]", "value": 23, "unit": "nM"},
      {"measurement": "IC50", "setting": "[4]", "value": 45, "unit": "nM"}
    ]},
    {"smiles": "Nc1ccc(CO)c(Cn2ccc3c4c(N)nc(N)nc4ccc32)c1", "values": [
      {"measurement": "IC50", "setting": "[2]", "value": 54, "unit": "nM"},
      {"measurement": "IC50", "setting": "U-937 [3]", "value": 36, "unit": "nM"},
      {"measurement": "IC50", "setting": "[4]", "value": 70, "unit": "nM"},
      {"measurement": "IC50", "setting": "NOMO-1", "value": 55, "unit": "nM"}
    ]}
  ]
}
